Results taken from patent US20180353445A1, “METHODS AND COMPOSITIONS RELATING TO PROTEASOME INHIBITOR RESISTANCE” (Whitehead Institute for Biomedical Research, priority 2017, published 2018).

What was measured:
20S proteasome = 20S proteasome (Homo sapiens, UniProt P28072+P28074); test: Native gel analysis of proteasomal complexes, Suc-LLVY-AMC substrate overlay; assay type: biochemical; details: control cells, 12 nM, 24 hours
Source text: FIGS. 2A-2F: Reducing expression of 19S subunits increases the levels of active 20S proteasomes and protects cancer cells from proteasome (FIG. 2A) HepG2 cells were infected with 80 shRNAs targeting 20 different subunits of the proteasome and 10 control shRNAs. Infected cells were then exposed to […] bortezomib and cell number was examined 4 days later. The plot represents the average (+/−SEM) of four different hairpins targeting the indicated proteasome subunits and their relative cell number following bortezomib treatment. 19S subunits are depicted with orange bars, the control with a blue bar and 20S subunits with green bars. […] (FIG. 2C) The relative cell number of cells harboring a control shLacZ or each of 4 individual shRNAs targeting shPSMD2 was analyzed 4 days after addition of the indicated concentrations of bortezomib. (FIG. 2D) HepG2 cells stably expressing four different shRNAs targeting the PSMD2 subunit and a control shRNA (lacZ) were analyzed by western blot for the indicated proteins 24 hours with or without bortezomib treatment. […] Proteasome complex levels were detected by immunoblot analysis and 20S proteasome activity by measuring the hydrolysis of Suc-LLVY-AMC by substrate overlay assays. * p<0.05 **p<0.01. […]

IMR32 and Kelly cells = test: Viability of IMR32 vs Kelly neuroblastoma cells; assay type: cell-based, human
Procedure: FIGS. 24A-24C: (FIG. 24A) Plot showing the effect of various concentrations of ABT-263 on IMR32 and Kelly cells. (FIG. 24B) Plot showing effect of various concentrations of disulfiram on IMR32 and Kelly cells. (FIG. 24C) Plot showing effect of various concentrations of elesclomol on IMR32 and Kelly cells. Fold viability refers to the number of viable cells of the indicated type after culture in the presence of the indicated test compound for 72 hours divided by the number of viable cells of that type after culture in the absence of the test compound.
FIG. 28: The relative viability was examined in IMR32 cells and Kelly cells after addition of indicated concentrations of the different BCL2 family inhibitors. ABT-263 (BCL2, BCLXL, MCL1) (upper left panel), ABT-199 (BCL2) (upper right panel), WEHI-539 (BCLXL) (lower left panel), A-1210477 (MCL1) (lower right panel). The relative effect on cell growth was analyzed 72 hours after addition of drugs.

FDX1 = biological target: T1, FDX1 (Homo sapiens, UniProt P10109); test: NMR titration of elesclomol against [U-15N]-FDX1 (2D 1H,15N TROSY-HSQC); assay type: binding
T1 construct: made in house
T1 sequence (P10109 62-184): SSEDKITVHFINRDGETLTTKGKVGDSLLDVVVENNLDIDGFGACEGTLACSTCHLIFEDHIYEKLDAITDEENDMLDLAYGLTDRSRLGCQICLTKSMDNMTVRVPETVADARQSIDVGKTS
Procedure: Most of these residues map to the α2, α3 helices and the β5 strand within the FDX1 structure (FIG. 53E).
NMR Spectroscopy—NMR spectra were collected at the National Magnetic Resonance Facility at Madison on a 750 MHz (^1H) Balker with a z-gradient cryogenic probe. The buffer used for NMR samples (HNT buffer) contained 20 mM HEPES at pH 7.6, 150 mM NaCl, and 2 mM TCEP. All sample temperatures were regulated at 25° C. NMRPipe software (Delaglio et al., 1995) was used to process the raw NMR data and NMRFAM-SPARKY (Lee et al., 2015) software was utilized to visualize and analyze the processed NMR data.
To study the interactions of FDX1 with elesclomol, 0.2 mM [U-^15N]-FDX1 in HNT buffer were placed in 5 mm Shigemi NMR tubes, and 2D ^1H,^15N TROSY-HSQC spectra were collected before and after titration of 5 equivalent molar ratio of elesclomol dissolved in HNT buffer.
Chemical shift perturbations (ΔδHN absolute value ppm) were calculated by
where Δ67 H and ΔδN are the chemical shift changes in the ^1H and ^15N dimensions, respectively.

cysteine desulfurase = biological target: T2, cysteine desulfurase (Homo sapiens, UniProt Q9Y697); test: Cysteine desulfurase activity assay; assay type: biochemical
T2 construct: made in house
T2 sequence (Q9Y697 56-457): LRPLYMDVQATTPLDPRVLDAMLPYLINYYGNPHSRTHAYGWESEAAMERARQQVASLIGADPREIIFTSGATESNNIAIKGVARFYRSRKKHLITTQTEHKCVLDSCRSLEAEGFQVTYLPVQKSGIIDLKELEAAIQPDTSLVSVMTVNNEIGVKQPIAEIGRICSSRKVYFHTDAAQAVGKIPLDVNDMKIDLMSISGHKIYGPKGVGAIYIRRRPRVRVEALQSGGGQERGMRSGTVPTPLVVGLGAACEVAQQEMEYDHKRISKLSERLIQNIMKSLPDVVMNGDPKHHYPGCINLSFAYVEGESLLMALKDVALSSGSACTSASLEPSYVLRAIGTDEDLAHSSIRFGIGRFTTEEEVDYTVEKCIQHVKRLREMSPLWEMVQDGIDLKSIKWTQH
T2 sequence (Q9HD34 whole entry, further chain): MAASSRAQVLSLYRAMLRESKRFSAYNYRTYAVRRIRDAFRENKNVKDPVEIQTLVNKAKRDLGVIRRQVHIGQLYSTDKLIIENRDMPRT
T2 sequence (P0A6A8 2-78, further chain): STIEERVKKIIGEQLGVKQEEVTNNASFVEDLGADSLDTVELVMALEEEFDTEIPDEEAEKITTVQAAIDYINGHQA
Procedure: The in vitro Fe—S cluster assembly was carried out with reduced FDX1 as the reducing agent and detected by following the increase of absorbance at 456 tun following the addition of either of 5× (green) or 10× (yellow, both relative to FDX1) compound-1. […] Fe—S formation was monitored by following the increase of absorbance at 456 nm. […] Cysteine desulfurase activity assay carried out with the indicated concentrations of elesclomol.

Structure (SMILES)	20S proteasome function (20S proteasome)	resistance of IMR32 cells compared to Kelly cells (IMR32 and Kelly cells)	binding to FDX1 by NMR (FDX1; 0.2 mM [U-15N]-FDX1, 5 equivalent molar ratio of elesclomol)	chemical shift perturbation (Δδ) of the most affected FDX residues (FDX1; I58-F59, D61, K66, D68, A69, D72-D76, L84, T104-R106) [ppm]	activity of cysteine desulfurase (cysteine desulfurase)
CC(C)C[C@H](NC(=O)[C@H](Cc1ccccc1)NC(=O)c1cnccn1)B(O)O [bortezomib]	nearly complete inactivation	increased resistance			
CN(NC(=O)CC(=O)NN(C)C(=S)c1ccccc1)C(=S)c1ccccc1 [elesclomol]			directly binds FDX1	> 0.01	does not inhibit
